Measurements published in US20240270762A1, “PENICILLIN-BINDING PROTEIN INHIBITORS” (priority 2021, published 2024).
In brackets after ≈: the same amount, converted by molar mass.

Assays:
[1] = system: P. aeruginosa ATCC 27853; experiment: microbe, parasite or virus in culture; assay type: cell-based; details: Pseudomonas aeruginosa, ATCC27853, read-out: Minimum inhibitory concentration, P. aeruginosa ATCC 27853
[2] = system: B. humptydooensis ATCC BAA-2767; experiment: microbe, parasite or virus in culture; assay type: cell-based; details: Burkholderia humptydooensis, ATCCBAA2767, read-out: Minimum inhibitory concentration (MIC), B. humptydooensis ATCC BAA-2767
[3] = system: A. baumannii 1258916; experiment: microbe, parasite or virus in culture; assay type: cell-based, Acinetobacter baumannii; details: Acinetobacter baumannii, 1258916, read-out: MIC, A. baumannii 1258916
[4] = system: P. aeruginosa (ΔmexAB-oprM); experiment: Broth microdilution MIC in iron-depleted CAMHB (IDM); assay type: cell-based; details: Pseudomonas aeruginosa; iron-depleted CAMHB (IDM); […]; read-out: Minimum inhibitory concentration, P. aeruginosa ΔmexAB-oprM
[5] = system: A. baumannii CDC-0045; experiment: microbe, parasite or virus in culture; assay type: cell-based; details: Acinetobacter baumannii, CDC0045, read-out: MIC, A. baumannii CDC-0045
[6] = system: P. aeruginosa CDC-0110; experiment: microbe, parasite or virus in culture; assay type: cell-based; details: Pseudomonas aeruginosa, CDC0110, read-out: Minimum inhibitory concentration, P. aeruginosa CDC-0110
[7] = system: P. aeruginosa CDC-0054; experiment: microbe, parasite or virus in culture; assay type: cell-based; details: Pseudomonas aeruginosa, CDC0054, read-out: Minimum inhibitory concentration, P. aeruginosa CDC-0054
[8] = system: A. baumannii CDC-0036; experiment: microbe, parasite or virus in culture; assay type: cell-based; details: Acinetobacter baumannii, CDC0036, read-out: MIC, A. baumannii CDC-0036
[9] = system: A. baumannii ATCC 17978; experiment: microbe, parasite or virus in culture; assay type: cell-based; details: Acinetobacter baumannii, ATCC17978, read-out: MIC, A. baumannii ATCC 17978
[10] = biological target: A. baumannii PBP2 (Acinetobacter baumannii, UniProt D0C8Z9); experiment: Bocillin-FL competition binding via gel filtration, A. baumannii PBP2
A. baumannii PBP2, sequence (D0C8Z9 whole entry): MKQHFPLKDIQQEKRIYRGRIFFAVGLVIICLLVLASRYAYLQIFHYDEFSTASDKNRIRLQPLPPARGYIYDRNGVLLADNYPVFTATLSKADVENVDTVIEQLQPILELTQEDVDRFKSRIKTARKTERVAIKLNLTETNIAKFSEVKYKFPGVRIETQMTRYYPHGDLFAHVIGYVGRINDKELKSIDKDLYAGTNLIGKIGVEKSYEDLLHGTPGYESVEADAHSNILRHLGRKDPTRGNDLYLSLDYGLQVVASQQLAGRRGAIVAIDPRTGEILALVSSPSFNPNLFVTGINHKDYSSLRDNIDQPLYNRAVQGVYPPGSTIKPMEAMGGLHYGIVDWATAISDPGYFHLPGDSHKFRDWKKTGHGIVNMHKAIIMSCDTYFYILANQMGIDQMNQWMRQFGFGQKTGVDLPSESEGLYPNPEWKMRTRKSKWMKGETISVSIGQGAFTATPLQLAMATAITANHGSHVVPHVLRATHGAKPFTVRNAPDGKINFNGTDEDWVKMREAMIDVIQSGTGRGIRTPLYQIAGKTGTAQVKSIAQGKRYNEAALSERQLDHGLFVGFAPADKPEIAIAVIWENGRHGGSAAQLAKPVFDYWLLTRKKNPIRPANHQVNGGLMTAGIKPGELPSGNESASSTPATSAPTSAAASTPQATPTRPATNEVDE
Summary of the method: (§1)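 Competitive equilibrium binding; reporter Bocillin-FL. PBP + inhibitor (titration) pre-incubated → Bocillin-FL, 15 min → gel filtration → fluorescence. EC50 from Hill fit of fraction bound vs [inhibitor].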

[11] = system: A. baumannii CDC-0083; experiment: microbe, parasite or virus in culture; assay type: cell-based; details: Acinetobacter baumannii, CDC0083, read-out: MIC, A. baumannii CDC-0083
[12] = biological target: T1, A. baumannii PBP1a (Acinetobacter baumannii, UniProt A0ABX6CK30); experiment: Bocillin-FL competition binding via gel filtration, A. baumannii PBP1a; details: competition binding assay using Bocillin-FL via gel filtration; read-out: A. baumannii PBP1a Potency
T1 sequence (A0ABX6CK30 1-851): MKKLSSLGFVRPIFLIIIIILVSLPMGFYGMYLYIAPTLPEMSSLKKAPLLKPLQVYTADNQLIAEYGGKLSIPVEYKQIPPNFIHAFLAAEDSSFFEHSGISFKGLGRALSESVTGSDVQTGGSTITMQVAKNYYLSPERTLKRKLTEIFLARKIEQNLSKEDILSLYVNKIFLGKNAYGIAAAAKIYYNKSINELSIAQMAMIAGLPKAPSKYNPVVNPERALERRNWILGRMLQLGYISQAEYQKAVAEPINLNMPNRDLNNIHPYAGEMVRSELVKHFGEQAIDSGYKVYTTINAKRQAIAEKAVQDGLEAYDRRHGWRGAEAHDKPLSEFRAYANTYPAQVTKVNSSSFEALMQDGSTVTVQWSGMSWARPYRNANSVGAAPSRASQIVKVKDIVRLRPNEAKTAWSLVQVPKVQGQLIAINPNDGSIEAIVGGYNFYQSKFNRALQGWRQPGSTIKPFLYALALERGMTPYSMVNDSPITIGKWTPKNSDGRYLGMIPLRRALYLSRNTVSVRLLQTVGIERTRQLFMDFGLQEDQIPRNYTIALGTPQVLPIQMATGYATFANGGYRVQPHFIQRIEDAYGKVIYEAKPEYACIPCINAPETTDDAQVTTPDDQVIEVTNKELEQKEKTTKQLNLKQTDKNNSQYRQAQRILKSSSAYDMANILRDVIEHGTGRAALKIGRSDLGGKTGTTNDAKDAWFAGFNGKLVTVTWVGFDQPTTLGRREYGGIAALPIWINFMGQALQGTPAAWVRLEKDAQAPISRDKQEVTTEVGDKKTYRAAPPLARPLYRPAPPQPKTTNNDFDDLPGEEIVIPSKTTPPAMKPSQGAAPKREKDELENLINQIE
Summary of the method: as §1

[13] = system: A. baumannii ATCC 19606; experiment: microbe, parasite or virus in culture; assay type: cell-based; details: Acinetobacter baumannii, ATCC19606, read-out: MIC, A. baumannii ATCC 19606

SMILES	MIC [1] [µg/mL]	MIC [2] [µg/mL]	MIC [3] [µg/mL]	MIC [4] [µg/mL]	MIC [5] [µg/mL]	MIC [6] [µg/mL]	MIC [7] [µg/mL]	MIC [8] [µg/mL]	MIC [9] [µg/mL]	EC50 [10] [µM]	MIC [11] [µg/mL]	EC50 [12] [µM]	MIC [13] [µg/mL]
O=C(NCCCN1CCN(C(=O)NC(C(=O)N[C@H]2Cc3ccc(F)c(C(=O)O)c3OB2O)c2cc(F)c(O)c(O)c2Cl)C1=O)Nc1ccncc1 (stereo partly drawn) [Example 285, (3R)-3-(2-(2-chloro-5-fluoro-3,4-dihydroxyphenyl)-2-(2-oxo-3-(3-(3-(pyridin-4-yl)ureido)propyl)imidazolidine-1-carboxamido)acetamido)-7-fluoro-2-hydroxy-3,4-dihydro-2H-benzo[e][1,2]oxaborinine-8-carboxylic acid]	8 to 16 (≈ 10.9 to 21.9 µM)	2 to 4 (≈ 2.73 to 5.47 µM)	2 to 4 (≈ 2.73 to 5.47 µM)	< 1	2 to 4 (≈ 2.73 to 5.47 µM)	8 to 16 (≈ 10.9 to 21.9 µM)	8 to 16 (≈ 10.9 to 21.9 µM)	8 to 16 (≈ 10.9 to 21.9 µM)	< 1	10 to 50	< 1	10 to 50	< 1
O=C(NCCCN1CCN(C(=O)NC(C(=O)N[C@H]2Cc3ccc(F)c(C(=O)O)c3OB2O)c2cc(F)c(O)c(O)c2Cl)C(=O)C1=O)c1ccc(O)c(Cl)c1F (stereo partly drawn) [Example 419, (3R)-3-(2-(4-(3-(3-chloro-2-fluoro-4-hydroxybenzamido)propyl)-2,3-dioxopiperazine-1-carboxamido)-2-(2-chloro-5-fluoro-3,4-dihydroxyphenyl)acetamido)-7-fluoro-2-hydroxy-3,4-dihydro-2H-benzo[e][1,2]oxaborinine-8-carboxylic acid]	2 to 4 (≈ 2.46 to 4.92 µM)	2 to 4 (≈ 2.46 to 4.92 µM)	2 to 4 (≈ 2.46 to 4.92 µM)	< 1	2 to 4 (≈ 2.46 to 4.92 µM)	< 1	2 to 4 (≈ 2.46 to 4.92 µM)	2 to 4 (≈ 2.46 to 4.92 µM)	< 1	< 10	> 128	< 10	< 1
O=C(NCCCN1CCN(C(=O)NC(C(=O)N[C@H]2Cc3ccc(F)c(C(=O)O)c3OB2O)c2cc(F)c(O)c(O)c2Cl)C(=O)C1=O)c1cc(O)ccc1F (stereo partly drawn) [Example 407, (3R)-3-(2-(2-chloro-5-fluoro-3,4-dihydroxyphenyl)-2-(4-(3-(2-fluoro-5-hydroxybenzamido)propyl)-2,3-dioxopiperazine-1-carboxamido)acetamido)-7-fluoro-2-hydroxy-3,4-dihydro-2H-benzo[e][1,2]oxaborinine-8-carboxylic acid]	< 1	8 to 16 (≈ 10.3 to 20.6 µM)	2 to 4 (≈ 2.57 to 5.14 µM)	< 1	< 1	< 1	< 1	2 to 4 (≈ 2.57 to 5.14 µM)	< 1	10 to 50	< 1	< 10	< 1
CN(CCCN1CCN(C(=O)NC(C(=O)N[C@H]2Cc3ccc(F)c(C(=O)O)c3OB2O)c2cc(F)c(O)c(O)c2Cl)C(=O)C1=O)C(=O)c1cccc(O)c1 (stereo partly drawn) [Example 310, (3R)-3-(2-(2-chloro-5-fluoro-3,4-dihydroxyphenyl)-2-(4-(3-(3-hydroxy-N-methylbenzamido)propyl)-2,3-dioxopiperazine-1-carboxamido)acetamido)-7-fluoro-2-hydroxy-3,4-dihydro-2H-benzo[e][1,2]oxaborinine-8-carboxylic acid]	< 1	< 1	< 1	< 1	< 1	< 1	< 1	2 to 4 (≈ 2.58 to 5.17 µM)	< 1	10 to 50	< 1	50 to 250	< 1
O=C(NCCCN1CCN(C(=O)NC(C(=O)N[C@H]2Cc3ccc(F)c(C(=O)O)c3OB2O)c2cc(F)c(O)c(O)c2Cl)C(=O)C1=O)c1c(F)cc(O)cc1Cl (stereo partly drawn) [Example 421, (3R)-3-(2-(2-chloro-5-fluoro-3,4-dihydroxyphenyl)-2-(4-(3-(2-chloro-6-fluoro-4-hydroxybenzamido)propyl)-2,3-dioxopiperazine-1-carboxamido)acetamido)-7-fluoro-2-hydroxy-3,4-dihydro-2H-benzo[e][1,2]oxaborinine-8-carboxylic acid]	2 to 4 (≈ 2.46 to 4.92 µM)	2 to 4 (≈ 2.46 to 4.92 µM)	2 to 4 (≈ 2.46 to 4.92 µM)	< 1	< 1	< 1	< 1	2 to 4 (≈ 2.46 to 4.92 µM)	< 1	< 10	> 128	< 10	< 1
O=C(NCCCN1CCN(C(=O)NC(C(=O)N[C@H]2Cc3ccc(F)c(C(=O)O)c3OB2O)c2cc(F)c(O)c(O)c2Cl)C(=O)C1=O)c1cc(O)c(F)c(O)c1 (stereo partly drawn) [Example 416, (3R)-3-(2-(2-chloro-5-fluoro-3,4-dihydroxyphenyl)-2-(4-(3-(4-fluoro-3,5-dihydroxybenzamido)propyl)-2,3-dioxopiperazine-1-carboxamido)acetamido)-7-fluoro-2-hydroxy-3,4-dihydro-2H-benzo[e][1,2]oxaborinine-8-carboxylic acid]	< 1	< 1	< 1	< 1	< 1	< 1	< 1	2 to 4 (≈ 2.52 to 5.04 µM)	< 1	< 10	< 1	< 10	< 1
O=C(NCCCN1CCN(C(=O)N[C@@H](C(=O)N[C@H]2Cc3ccc(F)c(C(=O)O)c3OB2O)c2cc(F)c(O)c(O)c2Cl)C(=O)C1=O)c1cc(F)c(O)c(F)c1 [Example 422, (R)-3-((R)-2-(2-chloro-5-fluoro-3,4-dihydroxyphenyl)-2-(4-(3-(3,5-difluoro-4-hydroxybenzamido)propyl)-2,3-dioxopiperazine-1-carboxamido)acetamido)-7-fluoro-2-hydroxy-3,4-dihydro-2H-benzo[e][1,2]oxaborinine-8-carboxylic acid]	2 to 4 (≈ 2.51 to 5.03 µM)	< 1	< 1	< 1	< 1	< 1	< 1	2 to 4 (≈ 2.51 to 5.03 µM)	< 1	< 10	> 128	< 10	< 1
